Results: patent publication US12031160B2, “Method for the production of glufosinate-ammonium” (ZHEJIANG UNIVERSITY OF TECHNOLOGY, priority 2018, dated 2024)

Legend:
[1] = target: Pseudomonas moorei glufosinate-ammonium dehydrogenase E3 (SEQ ID NO: 6) variant PPTGDH-L107R-F188P-G239K-F357G, SEQ ID NO: 9 (Pseudomonas moorei, UniProt A0A1H1HZ48, F188P/F357G/G239K/L107R); assay: Kinetic parameters of purified mutant PPTGDH-L107R-F188P-G239K-F357G
Procedure: (§1) 1. […] The mutant proteins were purified by Ni-NTA column(1.6×10 cm, Bio-Rad, the USA), and the specific operations were carried out as follows: (1)equilibrate a Ni-NTA column with 5 column volumes of a binding buffer(pH 8.0, 50 mM sodium phosphate buffer containing 0.3 M NaCl) until the baseline is steady; (2)load the sample with a flow rate of 1 mL/min with the amount of the loading sample of 25-40 mg/mL, thereby attaching the target protein to the Ni-NTA column; (3)wash the column with 6 column volumes of buffer A (pH 8.0, 50 mM sodium phosphate buffer containing 0.3 M NaCl and 30 mM imidazole) at a flow rate of 1 mL/min until the baseline is steady; (4)wash the column with buffer B (pH 8.0, 50 mM sodium phosphate buffer containing 0.3 M NaCl and 500 mM imidazole) at a flow rate of 1 mL/min, collect the target protein and dialyze overnight in a pH 7.5, 20 mM phosphate buffer, thereby obtaining the pure glufosinate-ammonium dehydrogenase; and (5)wash the Ni-NTA column with 5 column volumes of a binding buffer(pH 8.0, 50 mM sodium phosphate buffer containing 0.3 M NaCl) until the baseline is steady, and store the Ni-NTA column in 5 column volumes of ultrapure water containing 20% ethanol.

[2] = target: Pseudomonas moorei glufosinate-ammonium dehydrogenase E3 (PPTGDH, PPTGDHE3, WP_090325311.1), wild type, SEQ ID NO: 6 (Pseudomonas moorei, UniProt A0A1H1HZ48); assay: Kinetic parameters of purified original glufosinate-ammonium dehydrogenase PPTGDH; settings: pH 7.4, 35° C.
Procedure: as §1

Structure (SMILES): NC(=O)C1=CN([C@@H]2O[C@H](COP(=O)(O)OP(=O)(O)OC[C@H]3O[C@@H](n4cnc5c(N)ncnc54)[C@H](OP(=O)(O)O)[C@@H]3O)[C@@H](O)[C@H]2O)C=CC1 [NADPH]
- catalytic efficiency for the coenzyme NADPH, times higher than that of the original enzyme ([1]; mutant vs original enzyme): 34.61 times
- kcat/Km^A (NADPH) ([1]; pH 7.4, 35° C.): 1.3703e+07 M⁻¹ s⁻¹

Structure (SMILES): CP(=O)(O)CCC(=O)C(=O)O [PPO, 2-carbonyl-4-[(hydroxy)(methyl)phosphinoyl]-butyric acid]
- kcat/Km^B (PPO) [2]: 15220 M⁻¹ s⁻¹
- catalytic efficiency kcat/Km^B (PPO), times higher than that of the original enzyme ([1]; mutant vs original enzyme): 22.19 times
- kcat/Km^B (PPO) ([1]; pH 7.4, 35° C.): 337730 M⁻¹ s⁻¹
